Numbers after ± are expanded uncertainties.
Legend:
[1] = refractive index (other wavelength) (dimensionless); wn = mass fraction of the nth substance listed; details: 101 kPa, Liquid, Wavelength=632.8 nm, Standard Abbe refractometry
[2] = 101.33 kPa, Liquid
[3] = refractive index (other wavelength) (dimensionless); details: 101 kPa, Liquid, Wavelength=63.28 nm, Standard Abbe refractometry
[4] = refractive index (Na D-line) (dimensionless); details: 101.33 kPa, Liquid, Standard Abbe refractometry

## OCCCO [propan-1,3-diol] + CCCCn1cc[n+](C)c1.F[B-](F)(F)F
[1]; 286.8 K, w2 = 0.698
  refractive index: 1.424 ± 0.0005
[1]; 286.81 K, w2 = 0.796
  refractive index: 1.4233 ± 0.0005
[1]; 287.24 K, w2 = 0.901
  refractive index: 1.4228 ± 0.0005
[1]; 288.87 K, w2 = 0.796
  refractive index: 1.4228 ± 0.0005
[1]; 288.88 K, w2 = 0.901
  refractive index: 1.4224 ± 0.0005
[1]; 289.37 K, w2 = 0.698
  refractive index: 1.4234 ± 0.0005
[1]; 290.78 K, w2 = 0.602
  refractive index: 1.4239 ± 0.0005
[1]; 290.86 K, w2 = 0.796
  refractive index: 1.4223 ± 0.0005
[1]; 291 K, w2 = 0.901
  refractive index: 1.4219 ± 0.0005
[1]; 291.2 K, w2 = 0.698
  refractive index: 1.4229 ± 0.0005
[1]; 292.89 K, w2 = 0.796
  refractive index: 1.4218 ± 0.0005
[1]; 292.95 K, w2 = 0.901
  refractive index: 1.4214 ± 0.0005
[1]; 293.29 K, w2 = 0.602
  refractive index: 1.4232 ± 0.0005
[1]; 293.3 K, w2 = 0.698
  refractive index: 1.4223 ± 0.0005
[1]; 294.94 K, w2 = 0.698
  refractive index: 1.4219 ± 0.0005
[1]; 294.99 K, w2 = 0.901
  refractive index: 1.4209 ± 0.0005
[1]; 295.08 K, w2 = 0.602
  refractive index: 1.4227 ± 0.0005
[1]; 295.86 K, w2 = 0.796
  refractive index: 1.4211 ± 0.0005
[1]; 296.02 K, w2 = 0.513
  refractive index: 1.4235 ± 0.0007
[1]; 296.98 K, w2 = 0.602
  refractive index: 1.4222 ± 0.0005
[1]; 297 K, w2 = 0.901
  refractive index: 1.4204 ± 0.0005
[1]; 297.16 K, w2 = 0.0947
  refractive index: 1.4328 ± 0.0004
[1]; 297.94 K, w2 = 0.698
  refractive index: 1.4211 ± 0.0005
[1]; 297.96 K, w2 = 0.796
  refractive index: 1.4206 ± 0.0005
[1]; 298.14 K, w2 = 0.513
  refractive index: 1.4229 ± 0.0005
[1]; 298.49 K, w2 = 0.0947
  refractive index: 1.4325 ± 0.0004
[1]; 298.98 K, w2 = 0.602
  refractive index: 1.4217 ± 0.0005
[1]; 299.51 K, w2 = 0.384
  refractive index: 1.4245 ± 0.0005
[1]; 299.54 K, w2 = 0.299
  refractive index: 1.4263 ± 0.0005
[1]; 299.6 K, w2 = 0.194
  refractive index: 1.4289 ± 0.0006
[1]; 300 K, w2 = 0.0947
  refractive index: 1.4321 ± 0.0005
[1]; 300 K, w2 = 0.513
  refractive index: 1.4224 ± 0.0005
[1]; 300 K, w2 = 0.901
  refractive index: 1.4196 ± 0.0005
[1]; 301.08 K, w2 = 0.194
  refractive index: 1.4285 ± 0.0004
[1]; 301.1 K, w2 = 0.602
  refractive index: 1.4211 ± 0.0004
[1]; 301.22 K, w2 = 0.384
  refractive index: 1.424 ± 0.0005
[1]; 301.4 K, w2 = 0.299
  refractive index: 1.4258 ± 0.0005
[1]; 301.52 K, w2 = 0.0947
  refractive index: 1.4317 ± 0.0005
[1]; 302.02 K, w2 = 0.513
  refractive index: 1.4218 ± 0.0005
[1]; 302.17 K, w2 = 0.194
  refractive index: 1.4282 ± 0.0006
[1]; 303.06 K, w2 = 0.0947
  refractive index: 1.4313 ± 0.0004
[1]; 303.53 K, w2 = 0.384
  refractive index: 1.4234 ± 0.0005
[1]; 303.55 K, w2 = 0.299
  refractive index: 1.4252 ± 0.0005
[1]; 304.01 K, w2 = 0.513
  refractive index: 1.4212 ± 0.0005
[1]; 304.13 K, w2 = 0.194
  refractive index: 1.4276 ± 0.0005
[1]; 304.93 K, w2 = 0.513
  refractive index: 1.4209 ± 0.0005
[1]; 305.12 K, w2 = 0.0947
  refractive index: 1.4308 ± 0.0004
[1]; 305.28 K, w2 = 0.384
  refractive index: 1.4229 ± 0.0005
[1]; 305.3 K, w2 = 0.299
  refractive index: 1.4247 ± 0.0005
[1]; 305.51 K, w2 = 0.194
  refractive index: 1.4272 ± 0.0005
[1]; 307.32 K, w2 = 0.194
  refractive index: 1.4267 ± 0.0005
[1]; 307.43 K, w2 = 0.299
  refractive index: 1.4241 ± 0.0005
[1]; 307.44 K, w2 = 0.384
  refractive index: 1.4223 ± 0.0005
[1]; 308.96 K, w2 = 0.384
  refractive index: 1.4219 ± 0.0005
[1]; 309.08 K, w2 = 0.299
  refractive index: 1.4236 ± 0.0005

## OCCCO [propan-1,3-diol]
[2]; 293.15 K
  mass density: 1053.48 ± 0.26 kg/m3
[2]; 298.15 K
  mass density: 1050.28 ± 0.26 kg/m3
[2]; 303.15 K
  mass density: 1047.26 ± 0.25 kg/m3
[2]; 308.15 K
  mass density: 1044.11 ± 0.25 kg/m3
[2]; 313.15 K
  mass density: 1040.94 ± 0.24 kg/m3
[3]; 287.46 K
  refractive index: 1.4396 ± 0.0004
[3]; 288.88 K
  refractive index: 1.4392 ± 0.0004
[3]; 290.94 K
  refractive index: 1.4387 ± 0.0004
[3]; 293.1 K
  refractive index: 1.4381 ± 0.0004
[3]; 295.16 K
  refractive index: 1.4375 ± 0.0004
[3]; 297.02 K
  refractive index: 1.437 ± 0.0004
[3]; 299.09 K
  refractive index: 1.4365 ± 0.0004
[3]; 301.21 K
  refractive index: 1.4359 ± 0.0004

## OCCCCO [1,4-butanediol]
[2]; 293.15 K
  mass density: 1016.37 ± 0.5 kg/m3
[2]; 298.15 K
  mass density: 1013.04 ± 0.49 kg/m3
[2]; 303.15 K
  mass density: 1009.96 ± 0.48 kg/m3
[2]; 308.15 K
  mass density: 1006.75 ± 0.47 kg/m3
[2]; 313.15 K
  mass density: 1003.55 ± 0.46 kg/m3
[2]; 318.15 K
  mass density: 1000.72 ± 0.45 kg/m3
[4]; 294.23 K
  refractive index: 1.4447 ± 0.0005
[4]; 297.67 K
  refractive index: 1.4437 ± 0.0005
[4]; 300.86 K
  refractive index: 1.4428 ± 0.0005
[4]; 303.23 K
  refractive index: 1.4422 ± 0.0005
[4]; 306.21 K
  refractive index: 1.4414 ± 0.0005
[4]; 309.13 K
  refractive index: 1.4406 ± 0.0005
[4]; 313.69 K
  refractive index: 1.4393 ± 0.0005

From the NIST ThermoML archive (doi:10.1021/je900864n)
